This note sets out measurements from ChEMBL document CHEMBL1201862, “PubChem BioAssay data set” (2004).

SMILES strings stand for the structures.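 96-well plates; 48 h exposure; 5 concentrations. Endpoints by linear interpolation between flanking doses. Not reached: highest tested concentration assigned. The concentration for 50% growth inhibition is given as GI50.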 Calls of active or inactive are those of the source. No stated cut-off is given here; in the data, active = GI50 up to about 1.1 µM and inactive = higher.

Test systems include HOP-62; MCF7; SK-MEL-5; NCI-H522; HCC 2998; KM12; DU-145; SF-268; SNB-75; CAKI-1; LOX IMVI; MOLT-4; COLO 205; NCI-H460; SN12C; SK-MEL-28; HT-29; U-251; NCI/ADR-RES.
What all share (assay): NCI-60 cell line screen, 48 h

Turning to `Cc1ccc(Nc2n[nH]c(=S)s2)cc1C`, the GI50 with HOP-62 is > 100 µM (inactive); in the assay with MCF7, 90.4 µM (inactive); in the assay on SK-MEL-5 it was 68.2 µM (inactive); with NCI-H522, 60.3 µM (inactive); in the assay with HCC 2998, 70.6 µM (inactive); in the assay on KM12, 78.5 µM (inactive). The GI50 with DU-145 is > 100 µM (inactive); in the assay with SF-268, > 100 µM (inactive); in the assay with SNB-75, > 100 µM (inactive); with CAKI-1, > 100 µM (inactive); in the assay with LOX IMVI it was > 100 µM (inactive); in the assay with MOLT-4 it was 59.3 µM (inactive). Further, the GI50 was 66.1 µM (inactive) with COLO 205; 59 µM (inactive) with NCI-H460; > 100 µM (inactive) in the assay on SN12C; 57.9 µM (inactive) in the assay on SK-MEL-28; 57.4 µM (inactive) in the assay on HT-29; 92.7 µM (inactive) in the assay on U-251. The GI50 in the assay on NCI/ADR-RES is > 100 µM (inactive).

As to `COC(=O)/C=C(/C(=O)OC)c1cc2ccc3c([nH]c4ccccc43)c(C)c-2c1`, the GI50 in the assay on HOP-62 was 12.1 µM (inactive); in the assay on MCF7 it was 2.79 µM (inactive); with SK-MEL-5 it was 2.88 µM (inactive); in the assay on NCI-H522, 2.54 µM (inactive); with HCC 2998 it was 3.92 µM (inactive); in the assay on KM12, 3.73 µM (inactive). Moreover, the GI50 in the assay with DU-145 is 9.73 µM (inactive); with SF-268 it was 4.26 µM (inactive); with SNB-75, 5.26 µM (inactive); in the assay with CAKI-1, 6.32 µM (inactive); with LOX IMVI, 3.66 µM (inactive); in the assay on MOLT-4 it was 3.13 µM (inactive). In addition, the GI50 in the assay on COLO 205 is 1.75 µM (inactive); in the assay on NCI-H460 it was 4.45 µM (inactive); in the assay with SN12C it was 10.1 µM (inactive); in the assay with SK-MEL-28 it was 5.55 µM (inactive); with HT-29, 2.78 µM (inactive); with U-251, 3.85 µM (inactive). Besides, the GI50 in the assay with NCI/ADR-RES was 3.46 µM (inactive).

As to `CC1=C/C(=N\O)C(C(O)(C(F)(F)F)C(F)(F)F)C(C)(C)C1` (stereo not given), the GI50 in the assay on HOP-62, in the assay with MCF7, with SK-MEL-5, in the assay on NCI-H522, with HCC 2998 and with KM12 was > 10 µM (inactive) each time. Moreover, the GI50 in the assay on DU-145 was > 10 µM (inactive); in the assay on SF-268 it was > 10 µM (inactive); in the assay on SNB-75, 3.49 µM (inactive); in the assay on CAKI-1 it was > 10 µM (inactive); in the assay on LOX IMVI, > 10 µM (inactive); with MOLT-4, > 10 µM (inactive). Further, the GI50 in the assay with COLO 205, with NCI-H460, in the assay on SN12C, in the assay with SK-MEL-28, with HT-29 and with U-251 was > 10 µM (inactive) each time. The GI50 in the assay with NCI/ADR-RES is > 10 µM (inactive).

Turning to `COc1cc2cc3c4c(cc(OC)c(OC)c4c2cc1OC)CCN3C`, the GI50 with HOP-62 was 11.9 µM (inactive); in the assay on MCF7, 2.63 µM (inactive); in the assay on SK-MEL-5, 6.03 µM (inactive); in the assay with NCI-H522, 2.58 µM (inactive); in the assay on HCC 2998, 7.41 µM (inactive); in the assay on KM12 it was 11 µM (inactive). The GI50 was 4.97 µM (inactive) in the assay on DU-145; 8.53 µM (inactive) with SF-268; 8.13 µM (inactive) with SNB-75; 4.86 µM (inactive) with CAKI-1; 5.25 µM (inactive) with LOX IMVI; 2.41 µM (inactive) with MOLT-4. In addition, the GI50 with COLO 205 was 7.64 µM (inactive); in the assay on NCI-H460, 2.65 µM (inactive); in the assay with SN12C, 7.38 µM (inactive); with SK-MEL-28 it was 18.1 µM (inactive); with HT-29, 6.89 µM (inactive); with U-251 it was 3.58 µM (inactive). The GI50 in the assay with NCI/ADR-RES is 4.2 µM (inactive).

Take `Nc1nc(Cl)cc(NCC2(O)CC(CO)C2)n1` (stereo not given): the GI50 in the assay on HOP-62, in the assay on MCF7, with SK-MEL-5, in the assay with NCI-H522, in the assay with HCC 2998 and in the assay with KM12 was > 100 µM (inactive) each time. Further, the GI50 with DU-145, in the assay on SF-268, with SNB-75, in the assay on CAKI-1, with LOX IMVI and in the assay with MOLT-4 was > 100 µM (inactive) each time. The GI50 with COLO 205, in the assay on NCI-H460, with SN12C, in the assay with SK-MEL-28, in the assay on HT-29 and in the assay on U-251 was > 100 µM (inactive) throughout. Besides, the GI50 with NCI/ADR-RES was > 100 µM (inactive).

As for `CC(C)C[C@H](NC(=O)[C@H](Cc1ccccc1)NC(=O)CCc1ccccc1)B(O)O`, the GI50 with HOP-62, with MCF7, with SK-MEL-5, in the assay with NCI-H522, in the assay on HCC 2998 and in the assay with KM12 was < 0.01 µM (active) in each case. Moreover, the GI50 in the assay with DU-145, with SF-268, with SNB-75, in the assay on CAKI-1, in the assay on LOX IMVI and in the assay with MOLT-4 was < 0.01 µM (active) in each case. Further, the GI50 with COLO 205, in the assay on NCI-H460, with SN12C, with SK-MEL-28, in the assay with HT-29 and in the assay on U-251 was < 0.01 µM (active) throughout. The GI50 in the assay on NCI/ADR-RES is 0.011 µM (active).

Take `COC1=C2CC(C)CC(OC)C(OC(=O)CCCN)C(C)/C=C(\C)C(OC(N)=O)C(OC)/C=C\C=C(/C)C(=O)NC(=CC1=O)C2=O` (stereo not given): the GI50 is 17.3 µM (inactive) in the assay on HOP-62; 0.865 µM (active) with MCF7; 9.14 µM (inactive) in the assay with SK-MEL-5; 0.431 µM (active) in the assay with NCI-H522; 10.1 µM (inactive) in the assay on HCC 2998; 10.3 µM (inactive) in the assay with KM12. In addition, the GI50 with DU-145 is 9.23 µM (inactive); in the assay on SF-268, 10.3 µM (inactive); in the assay with SNB-75 it was 18.7 µM (inactive); in the assay on CAKI-1, 10.7 µM (inactive); in the assay on LOX IMVI, 2.64 µM (inactive); in the assay on MOLT-4, 0.815 µM (active). The GI50 with COLO 205 is 0.431 µM (active); with NCI-H460 it was 15.5 µM (inactive); with SN12C, 5.5 µM (inactive); in the assay with SK-MEL-28, 8.61 µM (inactive); in the assay with HT-29 it was 2.43 µM (inactive); in the assay on U-251, 18.5 µM (inactive). In the assay with NCI/ADR-RES, the GI50 is 19.9 µM (inactive).

For the compound `CN(C)CCCC1c2ccccc2Oc2ccc(C(F)(F)F)cc21` (stereo not given), the GI50 in the assay on HOP-62 is 16.5 µM (inactive); in the assay on MCF7 it was 12.7 µM (inactive); in the assay with SK-MEL-5 it was 7.45 µM (inactive); in the assay on NCI-H522 it was 14.3 µM (inactive); with HCC 2998, 1.63 µM (inactive); with KM12, 14.2 µM (inactive). Also, the GI50 with DU-145 is 17.2 µM (inactive); with SF-268, 14.3 µM (inactive); in the assay on SNB-75, 14.3 µM (inactive); with CAKI-1, 12.9 µM (inactive); in the assay with LOX IMVI, 15.6 µM (inactive); in the assay with MOLT-4 it was 6.64 µM (inactive). In addition, the GI50 was 4.65 µM (inactive) in the assay on COLO 205; 15 µM (inactive) in the assay on NCI-H460; 13.5 µM (inactive) in the assay on SN12C; 6.46 µM (inactive) in the assay with SK-MEL-28; 5.28 µM (inactive) with HT-29; 11.4 µM (inactive) with U-251. Also, the GI50 in the assay with NCI/ADR-RES was 13.7 µM (inactive).

For the compound `Nc1c(Cl)ncnc1N[C@@H]1C[C@H]1CO`, the GI50 in the assay with HOP-62, with MCF7, in the assay on SK-MEL-5, in the assay on NCI-H522, in the assay with HCC 2998 and in the assay with KM12 was > 100 µM (inactive) in each case. Also, the GI50 in the assay with DU-145 was > 100 µM (inactive); in the assay on SF-268, > 100 µM (inactive); in the assay with SNB-75, 0.494 µM (active); with CAKI-1 it was > 100 µM (inactive); with LOX IMVI, > 100 µM (inactive); in the assay with MOLT-4, > 100 µM (inactive). Further, the GI50 in the assay on COLO 205, in the assay with NCI-H460, with SN12C, in the assay with SK-MEL-28, in the assay with HT-29 and with U-251 was > 100 µM (inactive) throughout. Further, the GI50 in the assay on NCI/ADR-RES is > 100 µM (inactive).

On to `CC1=CC(=O)c2c(O)cccc2C1=O` [PLUMBAGIN], for which the GI50 was 5.52 µM (inactive) with HOP-62; 1.79 µM (inactive) in the assay with MCF7; 1.62 µM (inactive) in the assay on SK-MEL-5; 1.57 µM (inactive) in the assay on NCI-H522; 2.07 µM (inactive) in the assay with HCC 2998; 6.17 µM (inactive) in the assay on KM12. Besides, the GI50 was 1.65 µM (inactive) in the assay on DU-145; 2.17 µM (inactive) with SF-268; 5.51 µM (inactive) in the assay with SNB-75; 1.83 µM (inactive) in the assay on CAKI-1; 1.81 µM (inactive) in the assay with LOX IMVI; 0.236 µM (active) in the assay with MOLT-4. In addition, the GI50 in the assay on COLO 205 was 1.86 µM (inactive); in the assay with NCI-H460, 3.64 µM (inactive); with SN12C, 1.94 µM (inactive); in the assay on SK-MEL-28 it was 1.82 µM (inactive); with HT-29 it was 1.89 µM (inactive); with U-251, 6.17 µM (inactive). Further, in the assay with NCI/ADR-RES, the GI50 is 1.76 µM (inactive).
